Experimental data reported in ChEMBL document CHEMBL3879902, “Compounds and methods for kinase modulation, and indications thereof” (2012).

Legend:
[1] = Aqueous solubility of the compound in simulated gastric fluid at pH 1.5; assay type: ADME; conditions: simulated gi fluid
[2] = Aqueous solubility of the compound in simulated intestinal fluid at pH 4.5; assay type: ADME; conditions: simulated gi fluid
[3] = Aqueous solubility of the compound in simulated intestinal fluid at pH 6.8; assay type: ADME; conditions: simulated gi fluid
[4] = Aqueous solubility of the compound in hepes buffer at pH 7.4; assay type: physicochemical

| Compound | solubility [1] | solubility [2] | solubility [3] | solubility [4] |
| --- | --- | --- | --- | --- |
| O=C(c1c(F)ccc(NS(=O)(=O)c2c(F)cccc2F)c1F)c1c[nH]c2ncc(Cl)cc12 | Soluble | Soluble | Soluble | Soluble |
| CCCS(=O)(=O)Nc1ccc(F)c(C(=O)c2c[nH]c3ncc(-c4ccc(S(=O)(=O)N(C)C)cc4)cc23)c1F | Insoluble | Insoluble | Insoluble | Insoluble |
| CCCS(=O)(=O)Nc1ccc(F)c(C(=O)c2c[nH]c3ncc(-c4cnc(N5CCOCC5)nc4)cc23)c1F | Soluble | Insoluble | Insoluble | Insoluble |
| CCCS(=O)(=O)Nc1ccc(F)c(C(=O)c2c[nH]c3ncc(-c4ccc(N(C)C)nc4)cc23)c1F | Soluble | Insoluble | Soluble | Soluble |
| CCCS(=O)(=O)Nc1ccc(F)c(C(=O)c2c[nH]c3ncc(-c4ccc(C(=O)NC)nc4)cc23)c1F | Insoluble | Insoluble | Insoluble | Insoluble |
| O=C(c1c(F)ccc(NS(=O)(=O)c2cc(F)ccc2F)c1F)c1c[nH]c2ncc(Cl)cc12 | Insoluble | Insoluble | Soluble | Soluble |
| CCCS(=O)(=O)Nc1ccc(F)c(C(=O)c2c[nH]c3ncc(-c4ccc(C(=O)NC5CC5)nc4)cc23)c1F | Insoluble | Insoluble | Insoluble | Insoluble |
| CCCS(=O)(=O)Nc1ccc(F)c(C(=O)c2c[nH]c3ncc(-c4cn[nH]c4)cc23)c1F | Insoluble | Insoluble | Insoluble | Insoluble |
| C#Cc1cnc2[nH]cc(C(=O)c3c(F)ccc(NS(=O)(=O)CCC)c3F)c2c1 | Insoluble | Insoluble | Insoluble | Insoluble |
| CCCS(=O)(=O)Nc1ccc(F)c(C(=O)c2c[nH]c3ncc(-c4ccc(F)nc4)cc23)c1F | Insoluble | Insoluble | Insoluble | Insoluble |
| CCCS(=O)(=O)Nc1ccc(F)c(C(=O)c2c[nH]c3ncc(-c4ccc(S(=O)(=O)NC5CC5)cc4)cc23)c1F | Insoluble | Insoluble | Insoluble | Insoluble |
| O=C(c1c(F)ccc(NS(=O)(=O)c2cccc(F)c2)c1F)c1c[nH]c2nccc(Cl)c12 | Insoluble | Soluble | Soluble | Soluble |
| CCCS(=O)(=O)Nc1cccc(C(=O)c2c[nH]c3ncc(-c4cnc(N(C)C)nc4)cc23)c1F | Insoluble | Insoluble | Insoluble | Insoluble |
| CCCS(=O)(=O)Nc1ccc(F)c(C(=O)c2c[nH]c3ncc(-c4ccc(OCCN5CCOCC5)nc4)cc23)c1F | Soluble | Soluble | Insoluble | Insoluble |
| CCCS(=O)(=O)Nc1ccc(F)c(C(=O)c2c[nH]c3ncc(-c4ccc(NC(C)=O)nc4)cc23)c1F | Soluble | Insoluble | Insoluble | Insoluble |
| O=C(c1c(F)ccc(NS(=O)(=O)c2cc(F)ccc2F)c1F)c1c[nH]c2nccc(Cl)c12 | Insoluble | Soluble | Soluble | Soluble |
| Cc1cnc2[nH]cc(C(=O)c3c(F)ccc(NS(=O)(=O)c4c(F)cccc4F)c3F)c2c1 | Soluble | Insoluble | Soluble | Soluble |
